Data on 15 molecules can be found in PubChem BioAssay (NCI).

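96-well plates; 48 h exposure; 5 concentrations. Endpoints by linear interpolation between flanking doses. Not reached: highest tested concentration assigned. Abbreviation: GI50, concentration required for 50% inhibition of growth. TGI marks complete inhibition of growth.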

Some test systems named below: CAKI-1 renal; HCT-15 colon; PC-3 prostate; RPMI-8226 leukemia; RXF 393 renal; SF-268 CNS; SK-MEL-2 melanoma; SK-MEL-28 melanoma; SNB-19 CNS; SW-620 colon.
Holding throughout (test): NCI tumour cell line growth inhibition, 48 h

Turning to `COc1cccc2c1C(=O)c1c(O)c3c(c(O)c1C2=O)C[C@@](O)(C(=O)CO)C[C@@H]3O[C@H]1C[C@H](N)[C@@H](O)[C@H](C)O1`, the GI50 was 1.32 µM with CAKI-1 renal; 2.99 µM in the test on HCT-15 colon; 0.551 µM in the test on PC-3 prostate; 0.161 µM in the test with RPMI-8226 leukemia; 0.205 µM in the test on RXF 393 renal; 0.196 µM in the test on SF-268 CNS. Moreover, the GI50 was 0.514 µM in the test with SK-MEL-2 melanoma, 0.351 µM in the test on SK-MEL-28 melanoma and 0.127 µM with SNB-19 CNS. Further, the TGI in the test with CAKI-1 renal turned out to be 30.7 µM; in the test on HCT-15 colon it was 50 µM; in the test with PC-3 prostate, 5.32 µM; with RPMI-8226 leukemia, 3.61 µM; in the test with RXF 393 renal, 1.02 µM; with SF-268 CNS it was 2.08 µM. The TGI amounted to 3.09 µM with SK-MEL-2 melanoma, 1.35 µM with SK-MEL-28 melanoma, 21.7 µM in the test on SNB-19 CNS and 7.61 µM in the test on SW-620 colon.
As for `O=C1C=CC[C@H](/C=C/c2ccccc2)O1`, the GI50 in the test on CAKI-1 renal was 1.05 µM; in the test on HCT-15 colon, 3.14 µM; in the test on PC-3 prostate, 3.37 µM; in the test on RPMI-8226 leukemia, 0.742 µM; in the test on RXF 393 renal it was 5.23 µM; in the test with SF-268 CNS, 2.44 µM. The GI50 with SK-MEL-2 melanoma was 6.57 µM; in the test with SK-MEL-28 melanoma, 2.76 µM; in the test on SNB-19 CNS, 3.61 µM; in the test on SW-620 colon, 1.39 µM. Besides, the TGI was 14.4 µM with CAKI-1 renal; 22.2 µM with HCT-15 colon; 27.5 µM with PC-3 prostate; more than 100 µM with RXF 393 renal; 16.6 µM in the test on SF-268 CNS; 34.2 µM with SK-MEL-2 melanoma. Further, the TGI was found to be 15.3 µM in the test with SK-MEL-28 melanoma, 22.6 µM in the test on SNB-19 CNS and 16 µM in the test on SW-620 colon.
For the molecule `COC(=O)C1CCCN1C(=O)[C@@H]1CCCN1C(=O)[C@H](Cc1c[nH]c2ccccc12)NC(=S)Nc1cc(C(F)(F)F)cc(C(F)(F)F)c1` (some centres undefined), the GI50 is 2.73 µM in the test with CAKI-1 renal; 3.41 µM in the test on HCT-15 colon; 1.91 µM in the test with PC-3 prostate; 2.93 µM with RPMI-8226 leukemia; 1.78 µM in the test with RXF 393 renal; 3.46 µM in the test on SF-268 CNS. Also, the GI50 with SK-MEL-2 melanoma is 2.24 µM; in the test with SK-MEL-28 melanoma, 3.54 µM; with SNB-19 CNS, 2.7 µM; in the test on SW-620 colon it was 3.68 µM. Also, the TGI turned out to be 11.1 µM in the test on CAKI-1 renal; 12.8 µM in the test on HCT-15 colon; 5.32 µM in the test on PC-3 prostate; 8 µM with RPMI-8226 leukemia; 4.4 µM in the test with RXF 393 renal; 13.6 µM in the test with SF-268 CNS. Also, the TGI in the test with SK-MEL-2 melanoma was found to be 4.25 µM; in the test with SK-MEL-28 melanoma, 10.7 µM; in the test on SNB-19 CNS it was 12.1 µM; with SW-620 colon, 12.6 µM.
Regarding `C=C1C(=O)O[C@H]2[C@H]1CCC(/C=N/c1ncc(Br)cc1N)=C\CC[C@@]1(C)O[C@@H]21`, the GI50 was 1.49 µM in the test on HCT-15 colon; 2.26 µM in the test on PC-3 prostate; 1.13 µM with RPMI-8226 leukemia; 1.38 µM in the test on RXF 393 renal; 2.86 µM with SF-268 CNS; 1.96 µM in the test with SK-MEL-2 melanoma. The results for the GI50 with SK-MEL-28 melanoma, in the test with SNB-19 CNS and in the test on SW-620 colon were 2.37 µM, 10.1 µM and 1.33 µM, respectively. Also, the TGI is 4.01 µM in the test with HCT-15 colon; 11.1 µM with PC-3 prostate; 5.01 µM in the test on RPMI-8226 leukemia; 2.9 µM in the test with RXF 393 renal; 11.1 µM in the test on SF-268 CNS; 4.87 µM with SK-MEL-2 melanoma. The TGI with SK-MEL-28 melanoma amounted to 6.07 µM; in the test with SNB-19 CNS, 24.7 µM; in the test with SW-620 colon, 3.3 µM.
Turning to `O=c1oc2cc(N=Cc3ccc4c(c3)OCO4)ccc2c2ccccc12`, the TGI in the test with CAKI-1 renal was more than 100 µM; with HCT-15 colon, more than 100 µM; in the test with PC-3 prostate, more than 100 µM; in the test on RXF 393 renal it was 67.2 µM; in the test with SF-268 CNS it was more than 100 µM; in the test on SK-MEL-2 melanoma, more than 100 µM. Besides, the TGI in the test with SK-MEL-28 melanoma, with SNB-19 CNS and in the test on SW-620 colon was more than 100 µM throughout.
`Clc1ccc2nnnn2n1`: the GI50 is 10.1 µM with CAKI-1 renal; 4.01 µM in the test with HCT-15 colon; 3.54 µM in the test with RPMI-8226 leukemia; 2.75 µM with RXF 393 renal; 3.74 µM with SF-268 CNS; 2.88 µM with SK-MEL-2 melanoma. The GI50 in the test with SK-MEL-28 melanoma is 12.3 µM; in the test with SNB-19 CNS, 31.8 µM; in the test with SW-620 colon it was 3.88 µM. Further, the TGI was 22.8 µM with CAKI-1 renal; more than 100 µM in the test with HCT-15 colon; 28 µM with RPMI-8226 leukemia; 8.65 µM in the test with RXF 393 renal; 37.2 µM in the test on SF-268 CNS; 20.7 µM in the test on SK-MEL-2 melanoma. Further, the figures for the TGI in the test on SK-MEL-28 melanoma, in the test with SNB-19 CNS and with SW-620 colon were 63 µM, more than 100 µM and 22 µM, respectively.
As for `COc1ccc(NC(=O)COCCOCCNC[C@@H]2C(=O)O[C@H]3[C@H]2CC/C(COC(=O)OC/C2=C/CC[C@@]4(C)O[C@H]4[C@H]4OC(=O)[C@@H](CN(C)C)[C@@H]4CC2)=C\CC[C@@]2(C)O[C@@H]32)c(O)c1C(N)=O`, the GI50 with HCT-15 colon was 1.44 µM; in the test on PC-3 prostate, 11.1 µM; with RPMI-8226 leukemia it was 1.42 µM; in the test with RXF 393 renal, 1.3 µM; with SF-268 CNS, 8.7 µM; in the test with SK-MEL-2 melanoma, 9.69 µM. Also, the GI50 with SK-MEL-28 melanoma is 2.79 µM; in the test on SNB-19 CNS, 14.3 µM; in the test with SW-620 colon, 1.14 µM. Further, the TGI came out at 6.14 µM in the test with HCT-15 colon; 26.9 µM in the test with PC-3 prostate; 4.21 µM in the test on RPMI-8226 leukemia; 3.59 µM in the test with RXF 393 renal; 18.7 µM with SF-268 CNS; 20.3 µM with SK-MEL-2 melanoma. The TGI was 9.57 µM in the test on SK-MEL-28 melanoma, more than 50 µM with SNB-19 CNS and 2.87 µM in the test with SW-620 colon.
Turning to `O=C(O)CCSC(=O)Nc1ccccc1F`, the TGI in the test with CAKI-1 renal, with HCT-15 colon, in the test with RPMI-8226 leukemia, in the test with RXF 393 renal, in the test with SF-268 CNS and with SK-MEL-2 melanoma was more than 100 µM each time. Besides, the TGI in the test on SK-MEL-28 melanoma, with SNB-19 CNS and in the test with SW-620 colon was more than 100 µM throughout.
`CCOC(=O)/C(=C\c1ccc(C#N)cc1)C(C)=O`: the TGI in the test with CAKI-1 renal was more than 100 µM; in the test with HCT-15 colon, 40 µM; in the test on PC-3 prostate, 39.1 µM; with RPMI-8226 leukemia, 54.5 µM; in the test on RXF 393 renal, 30.6 µM; in the test on SF-268 CNS it was 87.2 µM. Further, the TGI with SK-MEL-2 melanoma is 31.3 µM; in the test on SNB-19 CNS, more than 100 µM; with SW-620 colon, more than 100 µM.
Regarding `COc1ccc(/C(=N\O)c2cc(C)c(OC)c(C)c2)cc1O`, the GI50 is less than 0.01 µM in the test on HCT-15 colon; less than 0.01 µM in the test with PC-3 prostate; less than 0.01 µM in the test on RXF 393 renal; 0.0222 µM in the test on SF-268 CNS; 0.0328 µM in the test with SK-MEL-2 melanoma; 20.9 µM in the test on SK-MEL-28 melanoma. The GI50 is 0.0548 µM with SNB-19 CNS and less than 0.01 µM in the test with SW-620 colon. The TGI with HCT-15 colon, with PC-3 prostate, in the test on RXF 393 renal, in the test with SF-268 CNS, in the test with SK-MEL-2 melanoma and in the test on SK-MEL-28 melanoma was more than 100 µM in each case. The TGI in the test with SNB-19 CNS and with SW-620 colon was more than 100 µM each time.
For the molecule `CCN1Cc2c(ccc(F)c2C#N)O[C@@H](C)CNC(=O)c2c(N)nn3ccc1nc23`, the GI50 is 0.399 µM in the test with CAKI-1 renal; 2.46 µM in the test on HCT-15 colon; 1.64 µM in the test with PC-3 prostate; 0.46 µM with RXF 393 renal; 3.26 µM in the test with SF-268 CNS; 1.72 µM with SK-MEL-2 melanoma. The GI50 in the test on SK-MEL-28 melanoma is 1.82 µM; in the test with SNB-19 CNS, 8.93 µM; in the test on SW-620 colon it was 3.87 µM. The TGI with CAKI-1 renal was determined as 1.98 µM; in the test on HCT-15 colon it was 14.9 µM; in the test on PC-3 prostate, 26.6 µM; in the test with RXF 393 renal it was 3.67 µM; with SF-268 CNS, 20.3 µM; with SK-MEL-2 melanoma, 5.22 µM. In addition, the TGI is 11.5 µM in the test on SK-MEL-28 melanoma, 39.3 µM in the test with SNB-19 CNS and 80.2 µM in the test with SW-620 colon.
For `O=C(O)CNS(=O)(=O)c1ccc(NC(=O)CI)cc1`, the TGI in the test on CAKI-1 renal was more than 100 µM; with HCT-15 colon, 41.5 µM; in the test on RPMI-8226 leukemia it was 38.6 µM; in the test with RXF 393 renal, 31.1 µM; in the test with SF-268 CNS, 44.3 µM; in the test on SK-MEL-2 melanoma it was 73.6 µM. Further, the TGI in the test with SK-MEL-28 melanoma was 72.4 µM; with SNB-19 CNS, more than 100 µM; in the test with SW-620 colon, 39.6 µM.
For the molecule `C=C1C(=O)OC2C=C(CCC(C)=O)C(C)C(OC(C)=O)CC12` (centres undefined), the TGI in the test on CAKI-1 renal stood at 23.6 µM; in the test with HCT-15 colon, 20.1 µM; in the test with RPMI-8226 leukemia, 24 µM; in the test with RXF 393 renal, 5.42 µM; in the test with SF-268 CNS, 32.8 µM; with SK-MEL-2 melanoma, 27.9 µM. Also, the values for the TGI with SK-MEL-28 melanoma, with SNB-19 CNS and in the test on SW-620 colon were 20.8 µM, 37.2 µM and 1.22 µM, respectively.
On to `O=C(O)CCC(NC(=O)c1ccccc1)C(=O)O` (centres undefined), for which the TGI in the test with CAKI-1 renal, with HCT-15 colon, with RPMI-8226 leukemia, with RXF 393 renal, in the test on SF-268 CNS and in the test with SK-MEL-2 melanoma was more than 100 µM throughout. Also, the TGI in the test on SK-MEL-28 melanoma, in the test on SNB-19 CNS and in the test with SW-620 colon was more than 100 µM throughout.
With `Cc1ccc([N+](=O)[O-])cc1NC(=O)c1cccc([N+](=O)[O-])c1O`, the TGI in the test with CAKI-1 renal was 89.7 µM; with HCT-15 colon, more than 100 µM; with RPMI-8226 leukemia, 68.3 µM; in the test on RXF 393 renal, 27.7 µM; in the test on SF-268 CNS, 83.9 µM; in the test on SK-MEL-2 melanoma, 33.9 µM. The TGI in the test on SK-MEL-28 melanoma is 51.2 µM; with SNB-19 CNS, more than 100 µM; in the test with SW-620 colon, more than 100 µM.
